In patent US8293774B2, “Optically active (R)-aryloxypropionic acid amides and herbicidal composition comprising same” (Kyung Nong Corporation, priority 2007, dated 2012):

Legend:
[1] = test system: ECHOG (Echinoch crus-galli Beauv. var. caudata Kitagawa, barnyard grass); assay: Weed control test, foliage treatment (Test Example 1, Table 7); format: in vivo; conditions: Echinochloa crus-galli, foliar, 3-leaf stage, read-out: Plant damage (herbicidal activity), visually evaluated, ECHOG; for pest or weed control at 25 g/ha: 0.025 kg/ha; for pest or weed control at 100 g/ha: 0.1 kg/ha; for pest or weed control at 200 g/ha: 0.2 kg/ha
Method: (§1) Seeds of rice, wheat, soy bean, barley, corn, common sorgum, barnyard grass, large crabgrass, creek grass, green foxtail and fall panicum were placed in sandy loam in 600 cm^2 pots and covered with soil. After keeping the pots in a greenhouse at 20 to 30° C. allowing growth of the plants to the 3-leaf stage of the barnyard grass, 2,000 l/ha of an emulsion obtained by diluting with water a mixture of 1 part by weight of a test compound, 5 parts by weight of acetone and 1 part by weight of an emulsifying agent (Tween 80, Junsei) was applied to the surface of the foliage of the plants. The plant damage at 10 days and 20 days after the foliage treatment was visually evaluated from the level of 1 to 100% by comparison with the untreated control: […]

[2] = test system: DIGSA (Digitaria Sanguinalis (L.) SCOP, large crabgrass); assay: as above; format: in vivo; conditions: Digitaria sanguinalis, foliar, read-out: Plant damage (herbicidal activity), visually evaluated, DIGSA; for pest or weed control at 25 g/ha: 0.025 kg/ha; for pest or weed control at 100 g/ha: 0.1 kg/ha; for pest or weed control at 200 g/ha: 0.2 kg/ha
Method: as §1

[3] = test system: PANDI (Panium dichotomiflorum Michx, fall panicum); assay: as above; format: in vivo; conditions: Panicum dichotomiflorum, foliar, read-out: Plant damage (herbicidal activity), visually evaluated, PANDI; for pest or weed control at 25 g/ha: 0.025 kg/ha; for pest or weed control at 100 g/ha: 0.1 kg/ha; for pest or weed control at 200 g/ha: 0.2 kg/ha
Method: as §1

[4] = test system: SORBI (Andropogon sorghum, common sorgum); assay: as above; format: in vivo; conditions: Sorghum bicolor, foliar, read-out: Plant damage (herbicidal activity), visually evaluated, SORBI; for pest or weed control at 25 g/ha: 0.025 kg/ha; for pest or weed control at 100 g/ha: 0.1 kg/ha; for pest or weed control at 200 g/ha: 0.2 kg/ha
Method: as §1

[5] = test system: SETVIR (Setaria viridis (L.) Beauv, green foxtail); assay: as above; format: in vivo; conditions: Setaria viridis, foliar, read-out: Plant damage (herbicidal activity), visually evaluated, SETVIR; for pest or weed control at 25 g/ha: 0.025 kg/ha; for pest or weed control at 100 g/ha: 0.1 kg/ha; for pest or weed control at 200 g/ha: 0.2 kg/ha
Method: as §1

[6] = test system: ARTHIS (Arthraxon hispidus (Thunb.) Makino, creek grass); assay: as above; format: in vivo; conditions: Arthraxon hispidus, foliar, read-out: Plant damage (herbicidal activity), visually evaluated, ARTHIS; for pest or weed control at 25 g/ha: 0.025 kg/ha; for pest or weed control at 100 g/ha: 0.1 kg/ha; for pest or weed control at 200 g/ha: 0.2 kg/ha
Method: as §1

[7] = test system: ZEAMX (Zea mays L., corn); assay: as above; format: in vivo; conditions: Zea mays, foliar, read-out: Plant damage (herbicidal activity), visually evaluated, ZEAMX; for plant injury at 25 g/ha: 0.025 kg/ha; for plant injury at 100 g/ha: 0.1 kg/ha; for plant injury at 200 g/ha: 0.2 kg/ha
Method: as §1

[8] = test system: TRZAW (Tritium aestivum L., wheat); assay: as above; conditions: in vivo
Method: as §1

[9] = test system: HORVU (Hordeum vulgare L., barley); assay: as above; conditions: in vivo
Method: as §1

[10] = test system: GLXMA (Glycine max(L.) MERR, soy bean); assay: as above; conditions: in vivo
Method: as §1

[11] = test system: ORYSA (Oryza sativa cv. Dongjin, rice); assay: as above; conditions: in vivo
Method: as §1

Barnyard grass = assay: Weed control test, 4-leaf stage plants (Test Example 1, Table 8); format: in vivo, Echinoch crus-galli Beauv. var. caudata Kitagawa
From the text: as §1, with “[…],” for “After keeping the pots in a greenhouse at 20 to 30° C. allowing growth of the plants to the 3-leaf stage of the barnyard grass,”

SMILES	pest or weed control at 25 g/ha [1] [%]	pest or weed control at 100 g/ha [1] [%]	pest or weed control at 200 g/ha [1] [%]	pest or weed control at 25 g/ha [2] [%]	pest or weed control at 100 g/ha [2] [%]	pest or weed control at 200 g/ha [2] [%]	pest or weed control at 25 g/ha [3] [%]	pest or weed control at 100 g/ha [3] [%]	pest or weed control at 200 g/ha [3] [%]	pest or weed control at 25 g/ha [4] [%]	pest or weed control at 100 g/ha [4] [%]	pest or weed control at 200 g/ha [4] [%]	pest or weed control at 25 g/ha [5] [%]	pest or weed control at 100 g/ha [5] [%]	pest or weed control at 200 g/ha [5] [%]	pest or weed control at 25 g/ha [6] [%]	pest or weed control at 100 g/ha [6] [%]	pest or weed control at 200 g/ha [6] [%]	plant injury at 25 g/ha [7] [%]	plant injury at 100 g/ha [7] [%]	also measured
C[C@@H](Oc1ccc(Oc2ccc(C#N)cc2F)cc1)C(=O)Nc1nc2ccccc2s1 [Example 19, (R)-2-[4-(4-cyano-2-fluorophenoxy)phenoxy]propionic acid-N-(2-benzothiazolyl)amide]	0	20	30	0	10	30	0	0	0	20	60	70	0	10	10	0	10	10	0	10	plant injury at 200 g/ha [7]: 30%; Plant damage (herbicidal activity), visually evaluated, TRZAW [8]: 0%; Plant damage (herbicidal activity), visually evaluated, HORVU [9]: 0%; Plant damage (herbicidal activity), visually evaluated, GLXMA [10]: 0%; Plant damage (herbicidal activity), visually evaluated, ORYSA [11]: 0%
C[C@@H](Oc1ccc(Oc2ccc(C#N)cc2F)cc1)C(=O)Nc1nc2ccc(Cl)cc2s1 [Example 21, (R)-2-[4-(4-cyano-2-fluorophenoxy)phenoxy]propionic acid-N-(6-chloro-2-benzothiazolyl)amide]	20	70	90	0	20	90	0	70	70	0	20	50	0	70	90	0	70	70	20	90	plant injury at 200 g/ha [7]: 100%; Plant damage (herbicidal activity), visually evaluated, TRZAW [8]: 0%; Plant damage (herbicidal activity), visually evaluated, HORVU [9]: 0%; Plant damage (herbicidal activity), visually evaluated, GLXMA [10]: 0%; Plant damage (herbicidal activity), visually evaluated, ORYSA [11]: 0%
C[C@@H](Oc1ccc(Oc2ccc(C#N)cc2F)cc1)C(=O)Nc1nc2ccc(F)cc2s1 [Example 23, (R)-2-[4-(4-cyano-2-fluorophenoxy)phenoxy]propionic acid-N-(6-fluoro-2-benzothiazolyl)amide]	20	50	50	0	20	20	0	0	10	0	20	20	0	0	20	0	0	10	10	90	plant injury at 200 g/ha [7]: 90%; Plant damage (herbicidal activity), visually evaluated, TRZAW [8]: 0%; Plant damage (herbicidal activity), visually evaluated, HORVU [9]: 0%; Plant damage (herbicidal activity), visually evaluated, GLXMA [10]: 0%; Plant damage (herbicidal activity), visually evaluated, ORYSA [11]: 0%
COc1ccc2nc(NC(=O)[C@@H](C)Oc3ccc(Oc4ccc(C#N)cc4F)cc3)sc2c1 [Example 27, (R)-2-[4-(4-cyano-2-fluorophenoxy)phenoxy]propionic acid-N-(6-methoxy-2-benzothiazolyl)amide]	20	70	90	0	20	90	0	0	10	0	20	20	0	0	20	0	0	10	10	90	plant injury at 200 g/ha [7]: 90%; Plant damage (herbicidal activity), visually evaluated, TRZAW [8]: 0%; Plant damage (herbicidal activity), visually evaluated, HORVU [9]: 0%; Plant damage (herbicidal activity), visually evaluated, GLXMA [10]: 0%
Cc1ccnc(NC(=O)[C@@H](C)Oc2ccc(Oc3ccc(C#N)cc3F)cc2)c1 [Example 33, (R)-2-[4-(4-cyano-2-fluorophenoxy)phenoxy]propionic acid-N-(4-methyl-2-pyridinyl)amide]																					Plant damage (herbicidal activity), visually evaluated, Barnyard grass (Barnyard grass; 0.025 kg/ha): 10%; Plant damage (herbicidal activity), visually evaluated, Barnyard grass (Barnyard grass; 0.05 kg/ha): 40%; Plant damage (herbicidal activity), visually evaluated, Barnyard grass (Barnyard grass; 0.1 kg/ha): 100%; Plant damage (herbicidal activity), visually evaluated, Barnyard grass (Barnyard grass; 0.4 kg/ha): 100%
C[C@@H](Oc1ccc(OC(F)=Cc2ccc(F)cc2)cc1)C(=O)Nc1nc2cc(Cl)ccc2o1 [Example 52, (R)-2-[4-(1-fluoro-2-(4-fluorophenyl)vinyloxy)phenoxy]propionic acid-N-(5-chloro-2-benzoxazolyl)amide]	0	0	20	0	0	10	0	0	0	0	0	0	0	0	10	0	0	0	10	30	plant injury at 200 g/ha [7]: 30%; Plant damage (herbicidal activity), visually evaluated, TRZAW [8]: 0%; Plant damage (herbicidal activity), visually evaluated, HORVU [9]: 0%; Plant damage (herbicidal activity), visually evaluated, GLXMA [10]: 0%
